Experimental data taken from patent US12171755B2, “PAPD5 inhibitors and methods of use thereof” (Children's Medical Center Corporation, priority 2017, dated 2024).

Target: T1, PAPD5 (Homo sapiens, UniProt Q8NDF8)
T1 construct: made in house
Assay: High-throughput luminescence (KinaseGlo) RNA polyadenylation assay, ATP utilization by recombinant PAPD5
Format: biochemical
Settings: Table 4 (entries of Table 5), ratio of luminescence with inhibitor to DMSO; for Fold-change determined at compound concentration 33 μM: 33 μM compound; for Fold-change determined at compound concentration 100 μM: 100 μM compound, higher = higher inhibition
Summary of the method: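 Values are ratios of inhibitor to DMSO luminescence, so larger numbers mean less ATP consumed. Screening was run in duplicate with a 2 h room-temperature reaction of recombinant PAPD5, ATP and oligo RNA substrate plus compound. Residual ATP was detected after a 10 min KinaseGlo step.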

T1 sequence (Q8NDF8 68-698 isoform Q8NDF8-5): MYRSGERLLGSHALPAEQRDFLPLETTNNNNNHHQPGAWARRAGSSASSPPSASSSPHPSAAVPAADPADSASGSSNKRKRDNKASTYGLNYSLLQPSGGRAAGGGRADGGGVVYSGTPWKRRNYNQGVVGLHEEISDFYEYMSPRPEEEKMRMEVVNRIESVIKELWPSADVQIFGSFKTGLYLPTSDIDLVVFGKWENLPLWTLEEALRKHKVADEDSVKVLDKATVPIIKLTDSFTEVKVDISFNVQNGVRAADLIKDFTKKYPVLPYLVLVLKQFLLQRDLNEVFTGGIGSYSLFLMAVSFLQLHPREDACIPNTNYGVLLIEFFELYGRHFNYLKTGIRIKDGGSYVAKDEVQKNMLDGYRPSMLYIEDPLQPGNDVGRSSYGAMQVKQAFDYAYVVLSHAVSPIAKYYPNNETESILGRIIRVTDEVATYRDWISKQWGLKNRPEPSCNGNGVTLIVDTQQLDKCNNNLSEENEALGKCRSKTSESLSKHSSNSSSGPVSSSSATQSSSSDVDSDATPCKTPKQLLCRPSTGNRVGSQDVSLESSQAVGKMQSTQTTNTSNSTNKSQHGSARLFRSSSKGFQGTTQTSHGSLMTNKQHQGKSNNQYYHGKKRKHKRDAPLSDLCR

## COc1ccc(C(=O)N2CCc3ccc(CNS(C)(=O)=O)cc32)cc1 [Entry 221, N-[[1-(4-methoxybenzoyl)-2,3-dihydroindol-6-yl]methyl]methanesulfonamide]
  Fold-change determined at compound concentration 33 μM: 1.084
  Fold-change determined at compound concentration 100 μM: 1.585

## O=C(O)Cc1c2ccccc2n2c1[nH]c(=O)c1ccccc12 [Entry 222, 2-(5-oxo-6H-indolo[1,2-a]quinazolin-7-yl)acetic acid]
  Fold-change determined at compound concentration 33 μM: 1.05
  Fold-change determined at compound concentration 100 μM: 1.205

## COc1cc(NS(=O)(=O)c2ccc3oc(=O)c4ncn(C)c4c3c2)cc(OC)c1 [Entry 223, N-(3,5-dimethoxyphenyl)-1-methyl-4-oxochromeno[3,4-d]imidazole-8-sulfonamide]
  Fold-change determined at compound concentration 33 μM: 1.207
  Fold-change determined at compound concentration 100 μM: 1.254

## COc1cc2[nH]c3c(SCC(N)=O)ncnc3c2cc1OC [Entry 224, 2-[(7,8-dimethoxy-5H-pyrimido[5,4-b]indol-4-yl)sulfanyl]acetamide]
  Fold-change determined at compound concentration 33 μM: 1.193
  Fold-change determined at compound concentration 100 μM: 1.37

## COc1cccc(-c2nnc3n(CCc4ccccc4)c(=O)c4ccccc4n23)c1O [Entry 225, (1Z)-1-(5-methoxy-6-oxocyclohexa-2,4-dien-1-ylidene)-4-(2-phenylethyl)-2H-[1,2,4]triazolo[4,3-a]quinazolin-5-one]
  Fold-change determined at compound concentration 33 μM: 1.173
  Fold-change determined at compound concentration 100 μM: 1.219

## Cc1cccc2c1-c1sc(C(=O)NCCCN3CCC(C)CC3)cc1CO2 [Entry 226, 9-methyl-N-[3-(4-methylpiperidin-1-yl)propyl]-4H-thieno[3,2-c]chromene-2-carboxamide]
  Fold-change determined at compound concentration 33 μM: 1.095
  Fold-change determined at compound concentration 100 μM: 1.228

## Cn1[nH]c(-c2cccnc2)c2nc(-c3ccccc3OC(F)F)nc1-2 [Entry 227, 5-[2-(difluoromethoxy)phenyl]-1-methyl-3-pyridin-3-yl-2H-imidazo[4,5-c]pyrazole]
  Fold-change determined at compound concentration 33 μM: 1.097
  Fold-change determined at compound concentration 100 μM: 1.425

## CCOC(=O)c1c(C)nc2n(C)c3ccccc3n12 [Entry 228, ethyl 2,9-dimethyl-9H-benzo[d]imidazo[1,2-a]imidazole-3-carboxylate]
  Fold-change determined at compound concentration 33 μM: 1.146
  Fold-change determined at compound concentration 100 μM: 1.3

## O=C(O)CSc1nnc2n(-c3ccccc3)c3ccccc3n12 [Entry 229, [(9-Phenyl-9H-[1,2,4]triazolo[4,3-a]benzimidazol-3-yl)thio]acetic acid]
  Fold-change determined at compound concentration 33 μM: 1.249
  Fold-change determined at compound concentration 100 μM: 1.704

## Cc1nc(-c2cnccn2)nc2c1CC(=O)N2CC1CCCO1 (centres unmarked) [Entry 230, 4-methyl-2-(2-pyrazinyl)-7-(tetrahydro-2-furanylmethyl)-5,7-dihydro-6H-pyrrolo[2,3-d]pyrimidin-6-one]
  Fold-change determined at compound concentration 33 μM: 1.053
  Fold-change determined at compound concentration 100 μM: 1.527

## CCn1c(=S)sc2c(=O)n3[nH]c(=O)c4ccccc4c3nc21 [Entry 231, 11-ethyl-10-thioxo-10,11-dihydro-6H-[1,3]thiazolo[4′,5′:4,5]pyrimido[2,1-a]phthalazine-5,8-dione]
  Fold-change determined at compound concentration 33 μM: 1.068
  Fold-change determined at compound concentration 100 μM: 1.36

## CC1CCN(C(=O)CSc2nc3c(c(=O)n2Cc2ccccc2)SCC3)CC1 [Entry 232, 3-benzyl-2-((2-(4-methylpiperidin-1-yl)-2-oxoethyl)thio)-6,7-dihydrothieno[3,2-d]pyrimidin-4(3H)-one]
  Fold-change determined at compound concentration 33 μM: 1.198
  Fold-change determined at compound concentration 100 μM: 1.342

## CC1Oc2ccc(C(=O)CSc3nc(-c4ccc(Cl)cc4)c(C#N)c(=O)[nH]3)cc2NC1=O (centres unmarked) [Entry 233, 4-(4-chlorophenyl)-2-{[2-(2-methyl-3-oxo-3,4-dihydro-2H-1,4-benzoxazin-6-yl)-2-oxoethyl]sulfanyl}-6-oxo-1,6-dihydro-5-pyrimidinecarbonitrile]
  Fold-change determined at compound concentration 33 μM: 1.256
  Fold-change determined at compound concentration 100 μM: 1.859

## CC(=O)Nc1ccc2nc3c(=O)[nH]c(=O)[nH]c3nc2c1 [Entry 234, N-(2,4-dioxo-1H-benzo[g]pteridin-8-yl)acetamide]
  Fold-change determined at compound concentration 33 μM: 1.319
  Fold-change determined at compound concentration 100 μM: 1.648

## N#Cc1c[nH]n2c(NC3CCCCC3)c(-c3ccccc3F)nc12 [Entry 235, 3-(cyclohexylamino)-2-(2-fluorophenyl)-5H-imidazo[1,2-b]pyrazole-7-carbonitrile]
  Fold-change determined at compound concentration 33 μM: 1.177
  Fold-change determined at compound concentration 100 μM: 1.452

## CN1C(=O)C(c2c(-c3ccc4ccccc4c3)[nH]c3[nH]c(=O)[nH]c(=O)c23)c2ccccc21 (centres unmarked) [Entry 236, 5-(1-methyl-2-oxo-2,3-dihydro-1H-indol-3-yl)-6-(2-naphthyl)-1H-pyrrolo[2,3-d]pyrimidine-2,4(3H,7H)-dione]
10 μM compound
  Fold-change determined at compound concentration 10 μM: 1.272
  Fold-change determined at compound concentration 33 μM: 1.39
  Fold-change determined at compound concentration 100 μM: 1.75

## COc1ccc(Cc2nccc3cc(OC)c(OC)cc23)cc1OC [Entry 237, 1-(3,4-dimethoxybenzyl)-6,7-dimethoxyisoquinoline]
  Fold-change determined at compound concentration 33 μM: 1.166
  Fold-change determined at compound concentration 100 μM: 1.362

## Cc1ccc(Cn2c(SCc3ccc(C(=O)O)cc3)nc3cccnc32)cc1 [Entry 238, 4-[[3-[(4-methylphenyl)methyl]imidazo[4,5-b]pyridin-2-yl]sulfanylmethyl]benzoic acid]
  Fold-change determined at compound concentration 33 μM: 1.119
  Fold-change determined at compound concentration 100 μM: 1.238

## CN1CCCc2cc(C(=O)NC3CCCCC3)sc21 [Entry 239, N~2~cyclohexyl-7-methyl-4,5,6,7-tetrahydrothieno[2,3-b]pyridine-2-carboxamide]
  Fold-change determined at compound concentration 33 μM: 1.125
  Fold-change determined at compound concentration 100 μM: 1.314

## Cc1ccc(-n2nc3c(=O)n(CCCC(=O)NCc4ccccc4C)nc(C)c3c2C)cc1 [Entry 240, 4-[3,4-dimethyl-2-(4-methylphenyl)-7-oxopyrazolo[3,4-d]pyridazin-6-yl]-N-[(2-methylphenyl)methyl]butanamide]
  Fold-change determined at compound concentration 33 μM: 1.091
  Fold-change determined at compound concentration 100 μM: 1.206

## NC(=O)CN1c2ccc(F)cc2-c2ccccc2S1(=O)=O [Entry 241, 2-(9-fluoro-5,5-dioxido-6H-dibenzo[c,e][1,2]thiazin-6-yl)acetamide]
  Fold-change determined at compound concentration 33 μM: 1.099
  Fold-change determined at compound concentration 100 μM: 1.249

## O=C(O)c1ccc(N2C(=O)c3[nH]nc(-c4ccccc4)c3C2c2cccc(O)c2)cc1 (centres unmarked) [Entry 242, 4-[4-(3-hydroxyphenyl)-6-oxo-3-phenyl-1,4-dihydropyrrolo[3,4-c]pyrazol-5-yl]benzoic acid]
  Fold-change determined at compound concentration 33 μM: 1.068
  Fold-change determined at compound concentration 100 μM: 1.283

## O=c1cc(-c2cccc3c2Sc2ccccc2S3)oc(N2CCOCC2)c1 [Entry 243, 2-morpholin-4-yl-6-thianthren-1-ylpyran-4-one]
  Fold-change determined at compound concentration 33 μM: 1.324
  Fold-change determined at compound concentration 100 μM: 1.471
